In patent US11149277B2, “Method of producing enriched exosomes” (National Health Research Institutes, priority 2016, dated 2021):

Experiments:
HMLE cells = assay: Exosome markers in CM-P4 fraction of non-stem HMLE cells; assay type: cell-based; settings: 2 days treatment
From the text: FIG. 2 includes graphs and blots showing analyses of GW-treated NAMEC P4 fractions. CM-P4 GW-treated NAMECs were collected and subjected to (A) NanoSight Nanoparticle Tracking Analysis (NTA) and (B) Dynamic Light Scattering/Zeta Potential Analysis (DLS). […] D: particle diameter. RN: relative number. (C) is a blot showing the amounts of the CD44 stem cell marker and the CD81, CD9, TSG101, Alix, HSP70 and GAPDH exosome markers measured in the indicated CM-P4 fractions and cell lysates. The culture media and cell lysates were collected from the same number of NAMECs treated with vehicle (Crl), GW627368X (GW) or PGE2 (1 μM) for 4 days. (D) is a blot showing the amounts of the GAPDH and CD81 exosome markers and the CD44 stem cell marker measured in the CM-P4 fraction of NAMECs (CD44hi/CD24− stem cells) or CD44lo/CD24+ non-stem cells (HMLE cells) treated with vehicle (Crl) or GW for 2 days. 1×: P4 exosome fraction released by 1×10^6 cells; 2×: P4 exosome fraction released by 2×10^6 cells. […] (E) is a blot showing that the CD44 stem cell marker and GAPDH and CD81 exosome markers were measured in the indicated P4 conditioned medium fractions of NAMECs treated with vehicle (Crl), GW627368X (GW, 1 μg/ml), AH23848 (EP4 antagonist; 0.4, 2, 4 μg/ml), or AH6809 (EP1/2/3 antagonist; 0.8, 4, 8 μg/ml). […]

NAMECs = assay: NanoSight Nanoparticle Tracking Analysis of CM-P4 fractions of NAMEC culture; assay type: cell-based, human
From the text: FIG. 1 includes a TEM image and a graph. (A) is a TEM image of the P4 medium fraction of NAMECs treated with GW627368X (GW) for 4 days. Scale bar, 1 μm. (B) is a graph showing the number of particles in the CM-P4 fractions of NAMEC culture counted by using NanoSight Nanoparticle Tracking analysis. Top panel: Quantification of exosome release is shown as the ratio of [P4 GAPDH marker level]/[cell number]. Data are means±SEM (n=3). *P≤0.05. **P≤0.005. Bottom table: Quantification of exosome release is shown as the number of particles of the CM-P4 fractions released per cell measured by nanoparticle tracking analysis.
The isolated human mammary epithelial stem cells (NAMECs) were cultured in mammary epithelial cell basal medium (250 ml MCDB-170, 250 ml DMEM-F12, 1.2 g sodium bicarbonate, 2.5 μg EGF, 0.25 mg Hydrocortisone, 2.5 mg insulin, 35 mg BPE) with or without containing EP4 antagonist, i.e., GW627368X (GW) at 1 μg/ml, or AH23848 (AH) at 4 μg/ml, for 4 days. The culture medium was supplied with 0.5 μg/ml of GW or 2 μg/ml of AH23848 at the third day of the culturing period. For the induction of EP4 antagonist-induced exosomes from mouse mammary epithelial cells, cells were cultured in a medium containing 10 μg/ml of GW for 4 days.
The culture media were centrifuged at 300 g for 5 min to remove cells (P1), at 2,000 g for 20 min (P2), then at 10,000 g for 30 min (P3) all at 4° C. Dead cells and cell debris were removed at 300 g (P1) and 1200 g (P2). Finally, exosomes (P4) were separated from the supernatant by centrifugation at 110,000 g for 60 min. The P4 exosome pellet was washed once in PBS and then re-suspended in PBS for further application.

neural stem cells (NSCs) = assay: EV/exosome markers and SOX2 in neural stem cells; assay type: cell-based; settings: GW for 4 days
From the text: FIG. 10 includes blots and a graph. (A) is a graph showing vesicle number analysis of GW-treated mesenchymal stem cells (MSCs) P4 fractions. The CM-P4 GW-treated MSCs were collected and subjected to NanoSight Nanoparticle Tracking Analysis (NTA). Quantification of EV/exosome release is shown as the ratio of [vesicle number]/[cell number]. Data are means±SEM (n=3). ***P≤0.001. (B) is a set of blots showing the protein contents measured in the EV/exosome fraction released by MSCs treated with vehicle DMSO (MSC) or EP4 antagonists (MSCGW). The culture media (D1-4: conditioned medium from day 1 to day 4; D5-8: conditioned medium from day 5 to day 8) were collected from MSCs treated with vehicle (MSC), or GW (MSCGW) for 8 days. (C) is a set of blots showing the protein contents measured in the EV/exosome fraction released by neural stem cells (NSCs) treated with vehicle DMSO or EP4 antagonists. The culture media were collected from […] treated with DMSO or GW for 4 days. EV/exosome protein released by the same number of NSCs was loaded in the Western blotting.
Isolated neural stem cells (NSCs) were cultured in NSC medium (225 ml low glucose DMEM, 225 ml F12, 50 ml vesicle-depleted Bovine serum) with or without an EP4 antagonist (GW at 20-30 μg/ml) for 4 days. The culture medium was supplied with 10-15 μg/ml of GW on the third day of the cultural period. […]

In the case of `CCOc1c2c(c(OCC)c3ccccc13)C(=O)N(c1ccc(CC(=O)NS(=O)(=O)c3ccccc3)cc1)C2` [GW627368X], the “exosome release from non-stem HMLE cells (CD81, CD44, GAPDH)” value (HMLE cells) is reported as “did not increase exosome release”, the “concentration of released membrane vesicles” value (NAMECs; CM-P4 fraction, 4 days, PGE2 1 μM) is reported as ~5.4×10^4 particle/cell and the “release of membrane vesicles compared to untreated and PGE2-treated NAMECs” value (NAMECs; particle numbers in CM-P4) is reported as “significantly triggered the release of membrane vesicles”. The “content of exosomal markers CD81 and GAPDH in NSC culture” value (neural stem cells (NSCs)) was “increased” and the “expression level of NSC marker SOX2 vs non-treated NSCs” value (neural stem cells (NSCs)) was “much lower”.
